{"source": "PubChem BioAssay (NCI)", "assay_in_all_cases": "NCI anticancer screen, dose series, 48 h", "key": {"MDA-MB-435": {"test_system": "MDA-MB-435"}, "ACHN renal": {"test_system": "ACHN renal"}, "KM12 colon": {"test_system": "KM12 colon"}, "PC-3 prostate": {"test_system": "PC-3 prostate"}, "HS 578T breast": {"test_system": "HS 578T breast"}, "NCI-H23 lung": {"test_system": "NCI-H23 lung"}, "HOP-92 NSCLC": {"test_system": "HOP-92 NSCLC"}, "SNB-75 CNS": {"test_system": "SNB-75 CNS"}, "SK-MEL-5 melanoma": {"test_system": "SK-MEL-5 melanoma"}, "SR leukemia": {"test_system": "SR leukemia"}, "MDA-N": {"test_system": "MDA-N"}, "U251 CNS": {"test_system": "U251 CNS"}, "TK-10 renal": {"test_system": "TK-10 renal"}, "HCT-116 colon": {"test_system": "HCT-116 colon"}, "SK-MEL-2 melanoma": {"test_system": "SK-MEL-2 melanoma"}, "SK-MEL-28 melanoma": {"test_system": "SK-MEL-28 melanoma"}, "DU-145 prostate": {"test_system": "DU-145 prostate"}, "SF-268 CNS": {"test_system": "SF-268 CNS"}, "RPMI-8226 leukemia": {"test_system": "RPMI-8226 leukemia"}, "EKVX NSCLC": {"test_system": "EKVX NSCLC"}, "SF-295 CNS": {"test_system": "SF-295 CNS"}, "A549 NSCLC": {"test_system": "A549 NSCLC"}, "HT29 colon": {"test_system": "HT29 colon"}, "786-0 renal": {"test_system": "786-0 renal"}, "HCC-2998 colon": {"test_system": "HCC-2998 colon"}, "IGROV1 ovarian": {"test_system": "IGROV1 ovarian"}, "HOP-62 NSCLC": {"test_system": "HOP-62 NSCLC"}, "MOLT-4 leukemia": {"test_system": "MOLT-4 leukemia"}, "M14 melanoma": {"test_system": "M14 melanoma"}, "CAKI-1 renal": {"test_system": "CAKI-1 renal"}, "T-47D breast": {"test_system": "T-47D breast"}, "NCI/ADR-RES ovarian": {"test_system": "NCI/ADR-RES ovarian"}, "UACC-62 melanoma": {"test_system": "UACC-62 melanoma"}, "NCI-H522 lung": {"test_system": "NCI-H522 lung"}, "COLO 205 colon": {"test_system": "COLO 205 colon"}, "OVCAR-5 ovarian": {"test_system": "OVCAR-5 ovarian"}, "MALME-3M melanoma": {"test_system": "MALME-3M melanoma"}, "OVCAR-4 ovarian": {"test_system": "OVCAR-4 ovarian"}, "HL-60(TB) leukemia": {"test_system": "HL-60(TB) leukemia"}, "RXF 393 renal": {"test_system": "RXF 393 renal"}, "MDA-MB-231 breast": {"test_system": "MDA-MB-231 breast"}, "SNB-19 CNS": {"test_system": "SNB-19 CNS"}, "SK-OV-3 ovarian": {"test_system": "SK-OV-3 ovarian"}, "LOX IMVI melanoma": {"test_system": "LOX IMVI melanoma"}, "SN12C renal": {"test_system": "SN12C renal"}, "K-562 leukemia": {"test_system": "K-562 leukemia"}, "CCRF-CEM leukemia": {"test_system": "CCRF-CEM leukemia"}, "NCI-H460 lung": {"test_system": "NCI-H460 lung"}, "SW-620 colon": {"test_system": "SW-620 colon"}, "OVCAR-3 ovarian": {"test_system": "OVCAR-3 ovarian"}, "HCT-15 colon": {"test_system": "HCT-15 colon"}, "UO-31 renal": {"test_system": "UO-31 renal"}, "SF-539 CNS": {"test_system": "SF-539 CNS"}, "A498 renal": {"test_system": "A498 renal"}, "NCI-H226 lung": {"test_system": "NCI-H226 lung"}}, "note": "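A five-concentration, 48-hour dose response in 96-well plates underlies each endpoint, interpolated linearly between surrounding concentrations. TGI denotes the concentration required for complete inhibition of growth.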"}
{"smiles": "CN(C)/N=C1/CCC(C(F)(F)F)(C(F)(F)F)O1", "values": [{"measurement": "TGI", "setting": "MDA-MB-435", "result": 76, "unit": "µM"}, {"measurement": "TGI", "setting": "ACHN renal", "result": "> 100", "unit": "µM"}, {"measurement": "TGI", "setting": "KM12 colon", "result": 48.8, "unit": "µM"}, {"measurement": "TGI", "setting": "PC-3 prostate", "result": "> 100", "unit": "µM"}, {"measurement": "TGI", "setting": "HS 578T breast", "result": 88.4, "unit": "µM"}, {"measurement": "TGI", "setting": "NCI-H23 lung", "result": 98.4, "unit": "µM"}, {"measurement": "TGI", "setting": "HOP-92 NSCLC", "result": 70.1, "unit": "µM"}, {"measurement": "TGI", "setting": "SNB-75 CNS", "result": 97.5, "unit": "µM"}, {"measurement": "TGI", "setting": "SK-MEL-5 melanoma", "result": 52.6, "unit": "µM"}, {"measurement": "TGI", "setting": "SR leukemia", "result": "> 100", "unit": "µM"}, {"measurement": "TGI", "setting": "MDA-N", "result": "> 100", "unit": "µM"}, {"measurement": "TGI", "setting": "U251 CNS", "result": "> 100", "unit": "µM"}, {"measurement": "TGI", "setting": "TK-10 renal", "result": "> 100", "unit": "µM"}, {"measurement": "TGI", "setting": "HCT-116 colon", "result": 94, "unit": "µM"}, {"measurement": "TGI", "setting": "SK-MEL-2 melanoma", "result": 90.6, "unit": "µM"}, {"measurement": "TGI", "setting": "SK-MEL-28 melanoma", "result": "> 100", "unit": "µM"}, {"measurement": "TGI", "setting": "DU-145 prostate", "result": "> 100", "unit": "µM"}, {"measurement": "TGI", "setting": "SF-268 CNS", "result": "> 100", "unit": "µM"}, {"measurement": "TGI", "setting": "RPMI-8226 leukemia", "result": 85.5, "unit": "µM"}, {"measurement": "TGI", "setting": "EKVX NSCLC", "result": "> 100", "unit": "µM"}, {"measurement": "TGI", "setting": "SF-295 CNS", "result": "> 100", "unit": "µM"}, {"measurement": "TGI", "setting": "A549 NSCLC", "result": "> 100", "unit": "µM"}, {"measurement": "TGI", "setting": "HT29 colon", "result": "> 100", "unit": "µM"}, {"measurement": "TGI", "setting": "786-0 renal", "result": 93.4, "unit": "µM"}, {"measurement": "TGI", "setting": "HCC-2998 colon", "result": "> 100", "unit": "µM"}, {"measurement": "TGI", "setting": "IGROV1 ovarian", "result": 82.7, "unit": "µM"}, {"measurement": "TGI", "setting": "HOP-62 NSCLC", "result": 85, "unit": "µM"}, {"measurement": "TGI", "setting": "MOLT-4 leukemia", "result": "> 100", "unit": "µM"}, {"measurement": "TGI", "setting": "M14 melanoma", "result": 68.1, "unit": "µM"}, {"measurement": "TGI", "setting": "CAKI-1 renal", "result": "> 100", "unit": "µM"}, {"measurement": "TGI", "setting": "T-47D breast", "result": "> 100", "unit": "µM"}, {"measurement": "TGI", "setting": "NCI/ADR-RES ovarian", "result": 69.6, "unit": "µM"}, {"measurement": "TGI", "setting": "UACC-62 melanoma", "result": 68.8, "unit": "µM"}, {"measurement": "TGI", "setting": "NCI-H522 lung", "result": 99.3, "unit": "µM"}, {"measurement": "TGI", "setting": "COLO 205 colon", "result": 31.2, "unit": "µM"}, {"measurement": "TGI", "setting": "OVCAR-5 ovarian", "result": "> 100", "unit": "µM"}, {"measurement": "TGI", "setting": "MALME-3M melanoma", "result": 61.1, "unit": "µM"}, {"measurement": "TGI", "setting": "OVCAR-4 ovarian", "result": "> 100", "unit": "µM"}, {"measurement": "TGI", "setting": "HL-60(TB) leukemia", "result": 54.8, "unit": "µM"}, {"measurement": "TGI", "setting": "RXF 393 renal", "result": "> 100", "unit": "µM"}, {"measurement": "TGI", "setting": "MDA-MB-231 breast", "result": 57.4, "unit": "µM"}, {"measurement": "TGI", "setting": "SNB-19 CNS", "result": "> 100", "unit": "µM"}, {"measurement": "TGI", "setting": "SK-OV-3 ovarian", "result": "> 100", "unit": "µM"}, {"measurement": "TGI", "setting": "LOX IMVI melanoma", "result": 66.5, "unit": "µM"}, {"measurement": "TGI", "setting": "SN12C renal", "result": 81, "unit": "µM"}, {"measurement": "TGI", "setting": "K-562 leukemia", "result": "> 100", "unit": "µM"}, {"measurement": "TGI", "setting": "CCRF-CEM leukemia", "result": 90.3, "unit": "µM"}, {"measurement": "TGI", "setting": "NCI-H460 lung", "result": "> 100", "unit": "µM"}, {"measurement": "TGI", "setting": "SW-620 colon", "result": "> 100", "unit": "µM"}, {"measurement": "TGI", "setting": "OVCAR-3 ovarian", "result": 50.7, "unit": "µM"}, {"measurement": "TGI", "setting": "HCT-15 colon", "result": "> 100", "unit": "µM"}, {"measurement": "TGI", "setting": "UO-31 renal", "result": 98.2, "unit": "µM"}, {"measurement": "TGI", "setting": "SF-539 CNS", "result": "> 100", "unit": "µM"}, {"measurement": "TGI", "setting": "A498 renal", "result": 53.1, "unit": "µM"}, {"measurement": "TGI", "setting": "NCI-H226 lung", "result": 84, "unit": "µM"}]}
